# How the values were obtained:
# [1] = test system: KRAS G12V-dependent Ba/F3 cells; test: Ba/F3 proliferation assay, KRAS G12V; type: cell-based; conditions: AlamarBlue;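 further: proliferation IC50 in KRAS G12V-dependent Ba/F3 cells read by AlamarBlue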
# Method in brief: (§1)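 Transforming KRAS G12 mutants replaced IL-3 dependence in retrovirally engineered Ba/F3 cells, with puromycin omitted about ten days before testing. Growth under compound was quantified with an AlamarBlue fluorescent viability stain, in duplicate, by curve fitting.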
# [2] = test system: SAS cells; test: SAS CTG proliferation assay (120 h) (HNSCC, wt amplified); type: cell-based
# Method in brief: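 SAS cells plated at 300 per well in DMEM:F12 with 10% FCS and left overnight, then given compounds acoustically. After 120 h exposure, viability read by CellTiter-Glo as percent of DMSO control. IC50 from four-parameter non-linear regression.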
# [3] = test system: SK-CO-1 cells; test: SK-CO-1 CTG proliferation assay (120 h) (CRC, G12V); type: cell-based; conditions: SK-CO-1 cells (CRC, G12V), CTG 120 h
# Method in brief: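 SK-CO-1 colorectal cells (KRAS G12V), 500 per well in EMEM + 10% FCS, dosed with compound the day after seeding and grown 120 h at 37 °C. Viability by CellTiter-Glo luminescence as percent of DMSO control; IC50 from four-parameter non-linear regression.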
# [4] = test system: KRAS G12C-dependent Ba/F3 cells; test: Ba/F3 proliferation assay, KRAS G12C; type: cell-based; conditions: AlamarBlue
# Method in brief: as §1
# [5] = test system: LOVO cells; test: LOVO CTG proliferation assay (120 h) (CRC, G13D); type: cell-based; conditions: CTG 120 h
# Method in brief: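 LOVO cells, 1000 per well in DMEM + 10% FCS, were plated overnight and then dosed with compound from DMSO stock. After 120 h at 37 °C, viability was read by CellTiter-Glo luminescence as a percentage of DMSO controls. IC50 was derived by four-parameter non-linear regression.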
# [6] = test system: NCI-H358 cells; test: NCI-H358 CTG proliferation assay (120 h) (NSCLC, G12C); type: cell-based, human; conditions: Homo sapiens, assay 2, CTG, read-out: H358 (assay 2) IC50
# Method in brief: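 NCI-H358 cells (KRAS G12C) were seeded at 2000/well (assay 1) or 200/well (assay 2) in RPMI-1640 + 10% FCS and dosed with a logarithmic series, DMSO-normalized. After 120 h, viability was read by CellTiter-Glo luminescence as percent of DMSO control, with a T0 read at dosing. IC50 came from a four-parameter fit.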
Structure (SMILES),"IC50 ([1]; Mus musculus, BaF3, 72 h)",IC50 ([3]; Homo sapiens),"IC50 ([4]; Mus musculus, BaF3, 72 h)",IC50 ([5]; Homo sapiens),IC50 [6],IC50 [2],IC50 ([1]; 72 h),IC50 [3],IC50 ([4]; 72 h),IC50 [5]
C[C@H](Oc1cc(N2CC[C@H](N3CCCCC3)C2)nc(-c2noc3c2CCC[C@@]32CCCc3sc(N)c(C#N)c32)n1)[C@@H]1CCCN1C [II-12],549 nM,819 nM,438 nM,401 nM,,1920 nM,,,,
C[C@H](Oc1cc(N2CC[C@H](N3CCCC3)C2)nc(-c2noc3c2CCC[C@@]32CCCc3sc(N)c(C#N)c32)n1)[C@@H]1CCCN1C [II-14],771 nM,771 nM,293 nM,674 nM,,1670 nM,,,,
C[C@H](Oc1cc(-c2ccn(C)n2)nc(-c2onc3c2CCC[C@@]32CCCc3sc(N)c(C#N)c32)n1)[C@@H]1CCCN1C [I-21],,,,,,40 nM,6 nM,30 nM,6 nM,128 nM
C[C@H]1CN(C)CCCN1c1nc(-c2onc3c2CCC[C@@]32CCCc3sc(N)c(C#N)c32)cc(N2CCN(C)C3(CC3)C2)n1 [I-42],,,867 nM,,,,,,,
C[C@H](Oc1cc(N2CCN(CCO)CC2)nc(-c2noc3c2CCC[C@@]32CCCc3sc(N)c(C#N)c32)n1)[C@@H]1CCCN1C [II-8],316 nM,692 nM,301 nM,680 nM,,534 nM,,,,
C[C@H](Oc1cc(N2CC3CCC(C2)N3)nc(-c2noc3c2CCC[C@@]32CCCc3sc(N)c(C#N)c32)n1)[C@@H]1CCCN1C [II-34],681 nM,1240 nM,527 nM,2400 nM,,1950 nM,,,,
C[C@H](Oc1cc(N2CCN(C)CC2)nc(-c2noc3c2CCC[C@@]32CCCc3sc(N)c(C#N)c32)n1)[C@@H]1CCCN1[C@@H]1CCOC1 [II-39],,1240 nM,193 nM,2920 nM,,2940 nM,,,,
C[C@H](Oc1cc(N2C[C@@H](N(C)C)[C@@H](F)C2)nc(-c2noc3c2CCC[C@@]32CCCc3sc(N)c(C#N)c32)n1)[C@@H]1CCCN1C [II-11],324 nM,800 nM,241 nM,383 nM,,1320 nM,,,,
C[C@H](Oc1nc(-c2onc3c2CCC[C@@]32CCCc3sc(N)c(C#N)c32)cc(N2CCNC3(CC3)C2)n1)[C@@H]1CCCN1C [I-2],,,493 nM,,,,,,,
C[C@@H]1CN(c2cc(O[C@@H](C)[C@@H]3CCCN3C)nc(-c3noc4c3CCC[C@@]43CCCc4sc(N)c(C#N)c43)n2)C[C@H](C)N1 [II-36],390 nM,1120 nM,330 nM,16600 nM,,179 nM,,,,

# More lines, in order of falling IC50 ([4]; Mus musculus, BaF3, 72 h), values ahead:
"IC50 ([1]; Mus musculus, BaF3, 72 h)",IC50 ([3]; Homo sapiens),"IC50 ([4]; Mus musculus, BaF3, 72 h)",IC50 ([5]; Homo sapiens),IC50 [6],Structure (SMILES),IC50 [2],IC50 ([1]; 72 h),IC50 [3],IC50 ([4]; 72 h),IC50 [5]
247 nM,896 nM,120 nM,61 nM,,C[C@H](Oc1cc(N2CCN(C)C3(COC3)C2)nc(-c2noc3c2CCC[C@@]32CCCc3sc(N)c(C#N)c32)n1)[C@@H]1CCCN1C [II-13],450 nM,,,,
56 nM,174 nM,66 nM,74 nM,,C[C@H](Oc1cc([C@H]2CCN(C)C2)nc(-c2noc3c2CCC[C@@]32CCCc3sc(N)c(C#N)c32)n1)[C@@H]1CCCN1C [II-38],47 nM,,,,
,655 nM,50 nM,1220 nM,,C[C@H](Oc1nc(-c2noc3c2CCC[C@@]32CCCc3sc(N)c(C#N)c32)cc(N2C[C@H](C)N[C@@H](C)C2)n1)[C@@H]1CCCN1C [II-46],399 nM,,,,
27 nM,433 nM,35 nM,720 nM,,C[C@H](Oc1cc(-c2cnn(C)n2)nc(-c2noc3c2CCC[C@@]32CCCc3sc(N)c(C#N)c32)n1)[C@@H]1C[C@@H](F)CN1C [II-28],203 nM,,,,
9 nM,,9 nM,,266 nM,C[C@H](O)Cn1ccc(-c2cc(O[C@@H](C)[C@@H]3CCCN3C)nc(-c3onc4c3CCC[C@@]43CCCc4sc(N)c(C#N)c43)n2)n1 [I-31],57 nM,,,,
4 nM,3 nM,3 nM,63 nM,,C[C@H](Oc1cc(-n2ccc(C(=O)NC3COC3)n2)nc(-c2noc3c2CCC[C@@]32CCCc3sc(N)c(C#N)c32)n1)[C@@H]1CCCN1C [II-25],9 nM,,,,
1 nM,4 nM,1 nM,8 nM,6 nM,C[C@H](Oc1cc(-n2ccc(C(=O)N[C@H]3CCOC3)n2)nc(-c2onc3c2CCC[C@@]32CCCc3sc(N)c(C#N)c32)n1)[C@@H]1CCCN1C [I-57],,,,,

# Source: patent publication US20240174690A1, “ANNULATED 2-AMINO-3-CYANO THIOPHENES AND DERIVATIVES FOR THE TREATMENT OF CANCER” (BOEHRINGER INGELHEIM INTERNATIONAL GMBH, priority 2021, published 2024)
